Patent publication US20260274819A1, “ULK1 INHIBITOR, PREPARATION METHOD THEREFOR AND USE THEREOF” (DOVETREE MEDICINES UNUS, INC., priority 2023, published 2026)
pIC50: −log10 of the molar value.

Key:
[1] = system: ATG13 phosphorylation level in MIA PaCa-2 cells; assay: Inhibition of ATG13 phosphorylation level in MIA PaCa-2 cells (pATG13 ELISA); assay type: cell-based; conditions: Homo sapiens, Torin1 100 nM, 24 h incubation, Phospho-Atg13 (ser355)
Experimental: The inhibitory effect of the compound of the present disclosure on ULK1 was evaluated by testing the inhibitory effect of the compound of the present disclosure on ATG13 phosphorylation level in MIA PaCa-2 cells.
MIA PaCa-2 cells (ATCC, CRM-CRL-1420) were cultured in a complete medium, namely, a DMEM medium (Gibco, 11965-092) containing 10% fetal bovine serum (Corning, 35-081-CV), 2.5% horse serum (Gibco, 16050-122) and 1% double antibody (Gibco, 15140-122). The experiments were performed according to the requirements of the kit (Cell Signaling Technology, 17208C).
Cell plating: MIA PaCa-2 at 80% growth confluence were digested, diluted with the complete medium, and added to a 96-well cell culture plate (Costar, 3596) at 20,000 cells per well, with a volume of 90 μL.
Compound incubation: 5 μL of Torin1 and 5 μL of a serially diluted compound were added to each well so that the highest concentration of the compound in the reaction system was 10 μM. 5-fold serial dilution with 8 concentrations was performed, and the final concentration of Torin1 was 100 nM. The DMSO content in the system was 0.1%. The reaction plate was placed in an incubator at 37° C. in 5% CO2, and was incubated for 24 h. 10 μL of Torin1 was added to the negative control wells (NC) to a final concentration of 100 nM, with a DMSO content of 0.1%.
Reaction detection: After the incubation was completed, the cell plate was washed with a pre-cooled DPBS (Corning, 21-031-CVC) to wash away the compound and medium. 50 μL of pre-cooled cell lysis solution was added to each well, incubated on ice for 10 min. The cell plate was centrifuged, and the supernatant was transferred to an ELISA reaction plate. Simultaneously, 50 μL of Phospho-Atg13 (ser355) rabbit detection antibody was added, followed by incubation at room temperature under shaking for 60 min. After the incubation was completed, the reaction plate was washed with a washing solution for 4 times. 100 μL of TMB substrate was added for color development reaction, followed by incubation under shaded conditions with shaking for 15 min. Finally, 100 μL of stop solution was added to each well. The reaction was terminated by shaking for 10 s, and the absorbance value at 450 nm and 560 nm were collected within 10 min using Envision (Perkin Elmer, EnVision 2105).
The inhibition ratio was calculated by subtracting the absorbance value at […] from the absorbance value at 450 nm for each well. The inhibition ratio formula is as follows: inhibition ratio=(sample signal value−negative control signal value)/(positive control signal value -negative control signal value)×100%.
The dose-effect curve was fitted using the log (inhibitor) vs. response -Variable slope of Graphpad Prism8, thereby affording the IC50 value of each compound for inhibiting ATG13 phosphorylation level.

[2] = system: HEK293 GFP-LC3 stably transfected cells; assay: Inhibition of autophagy level in HEK293 GFP-LC3 stably transfected cells (autophagic flux); assay type: cell-based; conditions: Homo sapiens, Torin1 100 nM, 24 h, GFP fluorescence
Experimental: The inhibitory effect of the compound of the present disclosure on intracellular autophagy was evaluated by testing the impact of the compound of the present disclosure on the fluorescence intensity of HEK293 GFP-LC3 stably transfected cells.
HEK293 GFP-LC3 stably transfected cells (HEK293, ATCC, CRL-1573) were cultured in a complete medium, namely, a DMEM medium (Gibco, 11965-092) containing 10% fetal bovine serum (Corning, 35-081-CV), 1% double antibody (Gibco, 15140-122) and 1 μg/mL of Puromycin (Invitrogen-A1113803).
Cell plating: HEK293 GFP-LC3 stably transfected cells at 80% growth confluence were digested, diluted with a medium free of Puromycin, and added to a 96-well cell culture plate (Geriner, 655090) at 12,000 cells per well, with a volume of 90 μL.
Compound incubation: 5 μL of Torin1 and 5 μL of a serially diluted compound were added to each well so that the highest concentration of the compound in the reaction system was 10 μM. 3-fold serial dilution with 8 concentrations was performed, and the final concentration of Torin1 was 100 nM. The DMSO content in the system was 0.1%. The positive control wells (PC) contain DMSO at a final concentration of 0.1%, and the negative control wells (NC) contain 100 nM of Torin1 with 0.1% of DMSO. The reaction plate was placed in an incubator at 37° C. in 5% CO2, and was incubated for 24 h.
Cell staining and fixation: The cell plate was taken out, and 10 μL of Hochest33342 nuclear staining reagent (Thermo, H1399) was added to each well, followed by incubation at 37° C. in 5% CO2 for 30 min. After the incubation was completed, the cell supernatant was discarded, and 100 μL of pre-cooled 4% paraformaldehyde was added to each well to fix the cells for 15 min. Then, the fixative was discarded, and 100 μL of PBS was added to each well. Images were captured for analysis using a high-content cell imaging analyzer (PE, Operetta CLS), and GFP fluorescence signals were collected for data processing.
The average GFP fluorescence signal intensity in the reaction wells was collected for the calculation of the inhibition ratio:
The dose-effect curve was fitted using the log(inhibitor) vs. response -Variable slope of Graphpad Prism8, thereby affording the IC50 value of each compound for inhibiting autophagy level in HEK293 GFP-LC3 stably transfected cells.

ULK1 = target: T1, ULK1 (Homo sapiens, UniProt O75385); assay: Inhibition of ULK1 protein activity (ADP-Glo method); assay type: biochemical; conditions: ULK1 enzyme, ATP and MBP substrate, 60 min room temperature
T1 construct: purchased Promega V3521
T1 sequence (O75385 1-649 limits assumed): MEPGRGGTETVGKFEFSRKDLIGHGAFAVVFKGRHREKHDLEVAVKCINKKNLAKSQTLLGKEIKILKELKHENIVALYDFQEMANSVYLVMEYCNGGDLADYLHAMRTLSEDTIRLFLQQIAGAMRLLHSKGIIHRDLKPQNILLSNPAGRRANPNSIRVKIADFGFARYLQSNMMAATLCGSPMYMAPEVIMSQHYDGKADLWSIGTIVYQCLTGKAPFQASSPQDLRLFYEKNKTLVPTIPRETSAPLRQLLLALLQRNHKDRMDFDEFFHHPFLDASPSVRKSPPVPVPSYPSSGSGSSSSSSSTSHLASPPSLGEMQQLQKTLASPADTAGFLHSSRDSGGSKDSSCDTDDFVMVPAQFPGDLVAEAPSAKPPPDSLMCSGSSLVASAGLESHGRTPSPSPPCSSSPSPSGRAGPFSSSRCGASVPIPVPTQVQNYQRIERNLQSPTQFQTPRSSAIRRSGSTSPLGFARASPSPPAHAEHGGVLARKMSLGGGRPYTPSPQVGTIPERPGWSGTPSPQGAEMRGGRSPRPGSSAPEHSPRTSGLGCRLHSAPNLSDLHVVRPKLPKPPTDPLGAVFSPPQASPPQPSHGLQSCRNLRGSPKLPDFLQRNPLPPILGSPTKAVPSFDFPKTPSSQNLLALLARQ
Experimental: In this experiment, the inhibitory effect of a compound on the phosphorylation function of ULK1 was detected by ADP-Glo method. The inhibitory effect of the compound of the present disclosure on the ULK1 target was evaluated based on IC50.
Compound formulation: Using an ECHO (Beckman, ECHO650), the compound was serially diluted 3-fold in DMSO in a 384-well plate (PE, 6007290). A total of 10 concentration points were set, with the maximum concentration of the compound being 10 μM, and 50 nL per well. Positive control wells and negative control wells were added with 50 nL DMSO, respectively.
Reaction process: A 32 nM of ULK1 (Promega, V3521) solution was formulated, and 2.5 μL/well was transferred to the compound test wells and the negative control wells (NC). 2.5 μL/well of 1× Assay buffer was added to the positive control wells (PC). A mixed solution of 100 μM of ATP and 1.86 μM of MBP was formulated, and 2.5 μL/well was transferred to the reaction plate. After centrifugation, the reaction was initiated and incubated at room temperature for 60 min. After the reaction was completed, 5 μL/well of ADP-Glo Reagent (Promega, V9102) was added to the reaction plate. After centrifugation, the reaction was incubated at room temperature for 40 minutes. Finally, 10 μL/well of Kinase Detection Buffer was added, followed by centrifugation and incubation at room temperature for 30 min. The chemiluminescence value was read using Envision (PE, Envision2105).
Assay buffer: a reaction buffer; and Kinase Detection buffer: a detection buffer, both were taken from the ADP-Glodetection kit, purchased from Promega, model V9102. 3. Data analysis
The inhibition ratio of a compound on ULK1 activity was calculated using the following formula:
Inhibition ratio=(sample signal value−negative control signal value)/(positive control signal value−negative control signal value)×100%. The dose-effect curve was fitted using the log(inhibitor) vs. response -Variable slope of the analysis software GraphPad Prism 8, thereby affording the IC50 value of each compound for enzyme activity.

| SMILES | pIC50 [1] | pIC50 (ULK1) | pIC50 [2] |
| --- | --- | --- | --- |
| CN1CCN(c2ccc(Nc3ncc(C(F)(F)F)c(OCCCN4CCCCC4=O)n3)c(C3CC3)c2)CC1 [Example 1] | 6.00 to 7.00 | > 7.00 | 6.00 to 7.00 |
| CN1CCc2cc(Nc3ncc(C(F)(F)F)c(N4CCN(C)C(=O)C4)n3)ccc2C1 [Example 15] | 6.00 to 7.00 | > 7.00 | 6.00 to 7.00 |
| CN1CCN(c2ccc(Nc3ncc(C(F)(F)F)c(N4CCC5(CCN(C)C5)CC4)n3)c(C3CC3)c2)CC1 [Example 19] | < 6.00 | > 7.00 | 6.00 to 7.00 |
| CN1Cc2cc(Nc3ncc(C(F)(F)F)c(OCCCN4CCCCC4=O)n3)ccc2C2(CC2)C1 [Example 49] | > 7.00 | > 7.00 | > 7.00 |
| CN1CCN(c2ccc(Nc3ncc(C(F)(F)F)c(N4CCC5(CCN(C)CC5)CC4)n3)c(C3CC3)c2)CC1 [Example 51] | < 6.00 | > 7.00 | 6.00 to 7.00 |
| CN1CCN(c2ccc(Nc3ncc(C(F)(F)F)c(N4CCC5(CCN(C)CC5)C4)n3)c(C3CC3)c2)CC1 [Example 53] | 6.00 to 7.00 | > 7.00 | < 6.00 |

More lines, main results first:

| pIC50 [1] | pIC50 (ULK1) | SMILES | pIC50 [2] |
| --- | --- | --- | --- |
| < 6.00 | > 7.00 | CN1CCN(c2ccc(Nc3ncc(C(F)(F)F)c(N4CCN(C)C(=O)C4)n3)c(C3CC3)c2)CC1 [Example 5] | < 6.00 |
| > 7.00 | > 7.00 | CN1CCN(c2ccc(Nc3ncc(C(F)(F)F)c(N4CCC(n5cccn5)CC4)n3)c(C3CC3)c2)CC1 [Example 14] | < 6.00 |
| < 6.00 | > 7.00 | CN1CCN(c2ccc(Nc3ncc(C(F)(F)F)c(NC4CCN(C(=O)C5CCC5)CC4)n3)c(C3CC3)c2)CC1 [Example 20] | < 6.00 |
| 6.00 to 7.00 | > 7.00 | CN1CCN(c2ccc(Nc3ncc(C(F)(F)F)c(N4CC5(CN(C)C5)C4)n3)c(C3CC3)c2)CC1 [Example 24] | 6.00 to 7.00 |
| 6.00 to 7.00 | > 7.00 | CN1CCN(c2ccc(Nc3ncc(C(F)(F)F)c(N4CCC5(CCN(C)C5)C4)n3)c(C3CC3)c2)CC1 (stereo not drawn) [Example 26] | < 6.00 |
| 6.00 to 7.00 | > 7.00 | CN1CCN(c2ccc(Nc3ncc(C(F)(F)F)c(OCCCn4cccn4)n3)c(C3CC3)c2)CC1 [Example 29] | 6.00 to 7.00 |
| < 6.00 | > 7.00 | CN1CCN(c2ccc(Nc3ncc(C(F)(F)F)c(NCCCn4cccn4)n3)c(C3CC3)c2)CC1 [Example 30] | < 6.00 |
| 6.00 to 7.00 | > 7.00 | CN1CCN(c2ccc(Nc3ncc(C(F)(F)F)c(N[C@H]4CC[C@@H](n5cccn5)CC4)n3)c(C3CC3)c2)CC1 [Example 32] | < 6.00 |
